# pIC50: −log10 of the molar value.
# Assays:
# Format in all cases: cell-based
# TNFα = experiment: Cytokine suppression using human T cells: TNFα; conditions: T-cell; human CD3-positive T cells, CD3 antibody, about 18 hours; read-out: TNFα Inhibitory Activity, Human T-Cell (Test Example 5)
# Procedure: (§1) First, CD3-positive T cells were separated from whole blood by a magnetic bead method using an EasySep cell separation kit. Separated T cells suspended in RPMI-1640 medium were seeded on a 96-well plate previously coated with CD3 antibody (final concentration 3 μg/mL). Further, CD28 antibody (final concentration 5 ng/mL) was added as an IL-5 production stimulus and an IL-13 production stimulus. A test compound dissolved in dimethyl sulfoxide was added to each well, followed by culture at 37° C. under 5% CO2. The culture was carried out for about 18 hours for the evaluation of the amount of TNFα, and for about 48 hours for the evaluation of the amounts of IL-17A, IL-5, and IL-13. […]
# (§2) The measurement results obtained by measuring the TNFα inhibitory activity (50% inhibitory concentration) of the test compounds by the above method were evaluated in accordance with the following evaluated basis; A: less than 10 nM, B: 10 nM or more and less than 100 nM, and C: 100 nM or more. In addition, the measurement results obtained by measuring the IL-17A inhibitory activity, IL-5 inhibitory activity, and IL-13 inhibitory activity (50% inhibitory concentration) of the test compounds were evaluated in accordance with the following evaluated basis; A: less than 500 nM, B: 500 nM or more and less than 5000 nM, and C: 5000 nM or more.
# IL-23 = experiment: Cytokine suppression using human peripheral blood mononuclear cells: IL-23; conditions: human PBMC, lipopolysaccharide 1 ng/mL; read-out: IL-23 Inhibitory Activity, Human PBMC (Test Example 4)
# Procedure: First, peripheral blood mononuclear cells (PBMC) were separated from whole blood by specific gravity centrifugation. Then, the isolated peripheral blood mononuclear cells were added to RPMI-1640 medium (containing 10% fetal bovine serum, penicillin, streptomycin, L-glutamine, and 2-mercaptoethanol), and cultured in a 96-well plate at 37° C. under 5% CO2 for 0 to 1 hour. The test compound dissolved in dimethyl sulfoxide was added to each well, followed by further culture at 37° C. under 5% CO2 for 1 hour. A medium containing only dimethyl sulfoxide instead of the test compound was added to the control well. […]
# as §2, with “TNFα inhibitory activity and IL-5” for “TNFα”, “IL-23 inhibitory activity, IL-4” for “IL-5”
# A549 (lung cancer) = experiment: Antitumor activity: growth inhibition of A549; conditions: Homo sapiens, 120 h; A549, culturing for 5 days; read-out: 50% growth inhibitory concentration
# Procedure: (§3) As antitumor activity, 50% growth inhibitory concentration of various cancer cells (CEM-C1 (blood cancer (leukemia)), SU-DHL-4 (blood cancer (lymphoma)), A549 (lung cancer), HCT-116 (colorectal cancer), and Daoy (brain tumor)) was calculated as follows. First, each of the above cancer cells was seeded on a 384-well plate and cultured overnight at 37° C. under 5% CO2. After that, the test compound was added at various concentrations on the next day, and each number of cells was measured after culturing for 5 days. The 50% growth inhibitory concentration was defined as the test compound concentration at which the number of cells measured is an intermediate value between the number of cells after culture for 5 days under the same conditions without the addition of the test compound and the number of cells at the time of seeding (before the start of culture). The measurement results obtained by measuring the 50% growth inhibitory concentration of the test compound by the above method were evaluated in accordance with the following evaluated basis; A: less than 10 μM, B: 10 μM or more and less than 50 μM, and C: 50 μM or more. As a result of using apremilast as the test compound, the evaluation was C in all cancer cells. On the other hand, as a result of using the compound obtained in Example 248 as the test compound, the evaluation was A in all cancer cells.
# [1] = test system: SU-DHL-4 (blood cancer (lymphoma)); experiment: Antitumor activity: growth inhibition of SU-DHL-4; conditions: Homo sapiens, 120 h; SU-DHL-4, culturing for 5 days; read-out: 50% growth inhibitory concentration
# Procedure: as §3
# IL-5 = experiment: Cytokine suppression using human T cells: IL-5; conditions: T-cell; human CD3-positive T cells, CD3 and CD28 antibody, about 48 hours; read-out: IL-5 Inhibitory Activity, Human T-Cell (Test Example 5)
# Procedure: as §1, §2
SMILES,pIC50 (TNFα),pIC50 (IL-23),pIC50 (A549 (lung cancer)),pIC50 [1],pIC50 (IL-5)
"CC(C)(O)C(F)(F)Oc1ccc(-c2nccs2)c2oc(N3CC4CC(C3)N4)nc12 [Example 248, 1-((2-(3,6-Diazabicyclo[3.1.1]heptan-3-yl)-7-(thiazol-2-yl)benzo[d]oxazol-4-yl)oxy)-1,1-difluoro-2-methylpropan-2-ol]",> 8.00,> 6.30,> 5.00,> 5.00,> 6.30
"CCOc1cc([C@@H](CS(C)(=O)=O)N2C(=O)c3cccc(NC(C)=O)c3C2=O)ccc1OC [apremilast, reference compound]",< 7.00,≤ 5.30,≤ 4.30,≤ 4.30,≤ 5.30

# Reference: patent publication US12239643B2, “Therapeutic agent for inflammatory diseases, autoimmune diseases, fibrotic diseases, and cancer diseases” (MEIJI SEIKA PHARMA CO., LTD., priority 2018, dated 2025)
